Publication PMC12040169 (PLOS Biology, 2025)

Experiment: in vitro
Details: human, hela cells, % viability

SMILES | viability at 28.5 h, 10 µM
O=C(OCc1ccc(S(=O)(=O)c2ccccc2)cc1)c1cc(O)nc2ccccc12 [CBK266782] | 93.1%
CC(=O)c1cccc(NS(=O)(=O)c2ccc(OC(F)(F)F)cc2)c1 [CBK043606] | 88.5%
O=S(=O)(NCc1ccco1)N1CCOCC1 [CBK268749] | 90.2%
COc1ccc(SC(C)C(=O)N2CCN(c3ccc([N+](=O)[O-])nc3)CC2)cc1 (centres unmarked) [CBK298282] | 93.5%
COc1ccc(OC)c(C(C)NC(=O)C2CCN(CCc3cccs3)CC2)c1 (centres unmarked) [CBK148766] | 98.8%
O=C(CCCSc1nc2sc3c(c2c(=O)[nH]1)CCCC3)NCCO [CBK263336] | 90.9%
[O-][n+]1cc(-c2ccccc2)[n+]([O-])c2c1CCCC2 [CBK264847] | 98.7%
O=C(O)CCC(NC(=O)c1ccc(Cl)cc1)C(=O)O (centres unmarked) [CBK263597] | 94.2%
O=C(COc1ccc(F)cc1)NCc1ccc(-c2csnn2)cc1 [CBK149315] | 98.3%
CC(C)C(=O)Nc1cc2cccnc2nc1-c1cccc(C(F)(F)F)c1 [CBK073657] | 93.7%
Cc1cc(COc2nccnc2N2CCN(CC(N)=O)CC2)no1 [CBK084192] | 91%
COc1cccc(CC(=O)Nc2ncccc2OCCCC#N)c1 [CBK304961] | 88%
CNCC(=O)N1c2ccccc2CCc2ccc(NC(=O)OC)cc21 [CBK261285C] | 96.5%
Cc1ccc(NC2CC(C)N(C(=O)c3cccc([N+](=O)[O-])c3)c3ccc(C)cc32)cc1 (centres unmarked) [CBK293929] | 86.5%
N#Cc1c(NC(=O)Cn2cnc3sc(-c4ccccc4)cc3c2=O)sc2c1CCC2 [CBK268053] | 95.2%
O=C(OCc1ccccc1)N1CCC2(CC1)CN(c1ccc([N+](=O)[O-])cn1)CCO2 [CBK161111T] | 92%
COc1cc(/C=C2\S/C(=N/c3ccc(S(N)(=O)=O)cc3)NC2=O)c(Br)cc1O [CBK265711] | 96.9%

SMILES | viability at 28.5 h, 10 µM
FC(F)C(F)(F)Oc1cccc(Nc2nccn3ccnc23)c1 [CBK066284] | 91.6%
O=C(CC1CCCCC1)N1CCN(c2ncccn2)CC1 [CBK144529] | 102%
O=[N+]([O-])c1cc(S(=O)(=O)Nc2ccc(C(O)(C(F)(F)F)C(F)(F)F)cc2)ccc1Cl [CBK062106] | 92.9%
COc1ccc(CC(=O)Nc2ccc(S(=O)(=O)NC(C)C)cc2)cc1 [CBK267833] | 93.2%
O=C(NC1(c2ccccc2)CC1)c1cc(-n2cnnc2)ccc1Cl [CBK282777] | 97.2%
CCN1CCCC1CNS(=O)(=O)c1cc(C(N)=O)ccc1OC (centres unmarked) [CBK267815] | 115%
O=C(O)CC1S/C(=N/N=C/c2cn(Cc3ccccc3)c3ccccc23)NC1=O (centres unmarked) [CBK264466] | 102%
Cc1ccc(CN(CC(=O)N2CCC(C(N)=O)CC2)S(=O)(=O)c2ccc(Br)cc2)cc1 [CBK265813] | 102%
Cc1ccc(C(=O)Nc2ccc(C(=O)O)cc2)cc1S(=O)(=O)NCc1ccccc1 [CBK263219] | 101%
Cc1c(C(=O)NCCCCn2ccnc2)[nH]c2ccccc12 [CBK283246] | 94.3%
COC(=O)c1ccc(-c2ccc(OC)c(OC)c2)nc1 [CBK160175T] | 98.7%
Cc1ccc(S(=O)(=O)NCC(C)O)cc1-c1nnc2c3ccccc3c(C)nn12 (centres unmarked) [CBK266614] | 106%
N/C(=N\c1nonc1N)NC(=O)c1ccccc1 [CBK006756] | 71.5%
COc1ccc(CNc2ccc(N3CCOCC3)c(C(=O)O)c2)c(OC)c1 [CBK269860] | 91.3%
CN(CCN1CCCCC1)C(=O)c1cc2c([nH]1)CCCC2 [CBK281836] | 86.5%
Cc1c(S(=O)(=O)NCCN(C)C)sc2ccc(C(C)C)cc12 [CBK170357] | 90.2%
COc1ccc(F)c(CN(CC(C)(C)CN)C(=O)Nc2c(F)cccc2F)c1 [CBK002405C] | 109%

Same assay, conditions: human, hela cells, % viability, bulk resorufin, single well

SMILES | viability at 28.5 h, 10 µM
c1ccc2c(-c3ccc4c(c3)COC3(CCNCC3)O4)cccc2c1 [CBK060951] | 92.5%
